Target: SHP2 (Homo sapiens (Human), UniProt Q06124)
Test: SHP2 Allosteric Inhibition Assay
Assay type: biochemical
Settings: 0.5 nM SHP2 activated with 0.5 μM peptide IRS1_pY1172(dPEG8)pY1222; surrogate substrate DiFMUP; prompt fluorescence
Source text: SHP2 Allosteric Inhibition Assay
SHP2 is allosterically activated through binding of bis-tyrosyl-phorphorylated peptides to its Src Homology 2 (SH2) domains. The latter activation step leads to the release of the auto-inhibitory interface of SHP2, which in turn renders the SHP2 protein tyrosine phosphatase (PTP) active and available for substrate recognition and reaction catalysis. The catalytic activity of SHP2 was monitored using the surrogate substrate DiFMUP in a prompt fluorescence assay format.
After 30-60 minutes incubation at 25° C., the surrogate substrate DiFMUP (Invitrogen, cat #D6567) was added to the reaction and incubated at 25° C. for 30 minutes. […] The inhibitor dose response curves were analyzed using normalized IC50 regression curve fitting with control based normalization.

Row | Compound | IC50 [nM]
1 | CC1(N)CCN(c2nc3ccc(Sc4cccc(NC(=O)C5=C(O)CN(c6ccccc6)C5=O)c4Cl)nc3[nH]2)CC1 [Example 47, N-(3-((2-(4-amino-4-methylpiperidin-1-yl)-3H-imidazo[4,5-b]pyridin-5-yl)thio)-2-chlorophenyl)-4-hydroxy-2-oxo-1-phenyl-2,5-dihydro-1H-pyrrole-3-carboxamide] | 3
2 | CCC1C(O)=C(C(=O)Nc2cccc(Sc3ccc4nc(N5CCCCC5)[nH]c4n3)c2Cl)C(=O)N1c1ccccc1 (stereo not shown) [Example 63, N-(2-chloro-3-((2-(piperidin-1-yl)-3H-imidazo[4,5-b]pyridin-5-yl)thio)phenyl)-5-ethyl-4-hydroxy-2-oxo-1-phenyl-2,5-dihydro-1H-pyrrole-3-carboxamide] | 52
3 | CC1(N)CCN(c2cnc(Sc3ccc(NC(=O)C4=C(O)CN(c5ccccc5)C4=O)cc3Cl)c(N)n2)CC1 [Example 50, N-(4-((3-Amino-5-(4-amino-4-methylpiperidin-1-yl)pyrazin-2-yl)thio)-3-chlorophenyl)-4-hydroxy-2-oxo-1-phenyl-2,5-dihydro-1H-pyrrole-3-carboxamide] | 70
4 | CC1(CN)CCN(c2nnc(Sc3cccc(NC(=O)C4=C(O)NC5CCCCN5C4=O)c3Cl)c(N)n2)CC1 (stereo not shown) [Example 37, N-(3-((5-amino-3-(4-(aminomethyl)-4-methylpiperidin-1-yl)-1,2,4-triazin-6-yl)thio)-2-chlorophenyl)-2-hydroxy-4-oxo-4,6,7,8,9,9a-hexahydro-1H-pyrido[1,2-a]pyrimidine-3-carboxamide] | 6
5 | CN1C(=O)C(C(=O)Nc2cccc(Sc3ncc(N4CCC(C)(N)CC4)nc3N)c2Cl)=C(O)C1(C)C [Example 59, N-(3-((3-amino-5-(4-amino-4-methylpiperidin-1-yl)pyrazin-2-yl)thio)-2-chlorophenyl)-4-hydroxy-1,5,5-trimethyl-2-oxo-2,5-dihydro-1H-pyrrole-3-carboxamide] | < 3
6 | CN1C(=O)C(C(=O)Nc2cccc(Sc3ccc4nc(N5CCCCC5)[nH]c4n3)c2Cl)=C(O)C1(C)C [Example 65, N-(2-chloro-3-((2-(piperidin-1-yl)-3H-imidazo[4,5-b]pyridin-5-yl)thio)phenyl)-4-hydroxy-1,5,5-trimethyl-2-oxo-2,5-dihydro-1H-pyrrole-3-carboxamide] | 42
7 | CCC1C(O)=C(C(=O)Nc2cccc(Sc3ccc4nc(N5CCCCC5)[nH]c4n3)c2Cl)C(=O)N1C (stereo not shown) [Example 62, N-(2-chloro-3-((2-(piperidin-1-yl)-3H-imidazo[4,5-b]pyridin-5-yl)thio)phenyl)-5-ethyl-4-hydroxy-1-methyl-2-oxo-2,5-dihydro-1H-pyrrole-3-carboxamide] | 25
8 | O=C(Nc1cccc(Sc2ccc3nc(N4CCCCC4)[nH]c3n2)c1Cl)c1c(O)nc2ccccn2c1=O [Example 48, N-(2-chloro-3-((2-(piperidin-1-yl)-3H-imidazo[4,5-b]pyridin-5-yl)thio)phenyl)-2-hydroxy-4-oxo-4H-pyrido[1,2-a]pyrimidine-3-carboxamide] | 61
9 | Nc1nc(N2CCC(C(N)C(F)(F)F)C2)cnc1Sc1cccc(NC(=O)c2c(O)nc3ccccn3c2=O)c1Cl (stereo not shown) [Example 18, N-(3-((3-amino-5-(3-(1-amino-2,2,2-trifluoroethyl)pyrrolidin-1-yl)pyrazin-2-yl)thio)-2-chlorophenyl)-2-hydroxy-4-oxo-4H-pyrido[1,2-a]pyrimidine-3-carboxamide] | 789
10 | C[C@@H]1OCC2(CCN(c3cnc(Sc4cccc(NC(=O)c5c(O)nc6n(c5=O)CCCC6)c4Cl)c(N)n3)CC2)[C@@H]1N [Example 27, N-(3-((3-Amino-5-((3S,4S)-4-amino-3-methyl-2-oxa-8-azaspiro[4.5]decan-8-yl)pyrazin-2-yl)thio)-2-chlorophenyl)-2-hydroxy-4-oxo-6,7,8,9-tetrahydro-4H-pyrido[1,2-a]pyrimidine-3-carboxamide] | 23

Results, then the compound that gave them:

Row | IC50 [nM] | Compound
11 | 1030 | Cn1c(=O)c(C(=O)Nc2cccc(Sc3ncc(N4CCC(C)(CN)CC4)nc3N)c2Cl)c(O)c2c(C3CC3)csc21 [Example 4, N-(3-((3-amino-5-(4-(aminomethyl)-4-methylpiperidin-1-yl)pyrazin-2-yl)thio)-2-chlorophenyl)-3-cyclopropyl-4-hydroxy-7-methyl-6-oxo-6,7-dihydrothieno[2,3-b]pyridine-5-carboxamide]
12 | 7.3 | CN1C(=O)C(C(=O)Nc2cccc(Sc3ncc(N4CCC(C)(N)CC4)nc3N)c2Cl)=C(O)C1Cc1ccccc1 (stereo not shown) [Example 54, N-(3-((3-amino-5-(4-amino-4-methylpiperidin-1-yl)pyrazin-2-yl)thio)-2-chlorophenyl)-5-benzyl-4-hydroxy-1-methyl-2-oxo-2,5-dihydro-1H-pyrrole-3-carboxamide]
13 | 2190 | Nc1nc(N2CCC(N)(C(F)(F)F)CC2)cnc1Sc1cccc(NC(=O)c2c(O)nc3ccccn3c2=O)c1Cl [Example 19, N-(3-((3-amino-5-(4-amino-4-(trifluoromethyl)piperidin-1-yl)pyrazin-2-yl)thio)-2-chlorophenyl)-2-hydroxy-4-oxo-4H-pyrido[1,2-a]pyrimidine-3-carboxamide]
14 | 6 | NCC1(O)CCN(c2cnc(Sc3cccc(NC(=O)c4c(O)nc5ccccn5c4=O)c3Cl)c(N)n2)CC1 [Example 10, N-(3-((3-amino-5-(4-(aminomethyl)-4-hydroxypiperidin-1-yl)pyrazin-2-yl)thio)-2-chlorophenyl)-2-hydroxy-4-oxo-4H-pyrido[1,2-a]pyrimidine-3-carboxamide]
15 | 72 | CC1(N)CCN(c2cnc(Sc3cccc(NC(=O)c4c(O)c5ccccc5[nH]c4=O)c3Cl)c(N)n2)CC1 [Example 58, N-(3-((3-Amino-5-(4-amino-4-methylpiperidin-1-yl)pyrazin-2-yl)thio)-2-chlorophenyl)-4-hydroxy-2-oxo-1,2-dihydroquinoline-3-carboxamide]
16 | 7 | CC1(CN)CCN(c2cnc(Sc3cccc(NC(=O)c4c(O)nc5ccccn5c4=O)c3Cl)c(N)n2)CC1 [Example 2, N-(3-((3-amino-5-(4-(aminomethyl)-4-methylpiperidin-1-yl)pyrazin-2-yl)thio)-2-chlorophenyl)-2-hydroxy-4-oxo-4H-pyrido[1,2-a]pyrimidine-3-carboxamide]
17 | 10 | NCC1(F)CCN(c2cnc(Sc3cccc(NC(=O)c4c(O)nc5ccccn5c4=O)c3Cl)c(N)n2)CC1 [Example 15, N-(3-((3-amino-5-(4-(aminomethyl)-4-fluoropiperidin-1-yl)pyrazin-2-yl)thio)-2-chlorophenyl)-2-hydroxy-4-oxo-4H-pyrido[1,2-a]pyrimidine-3-carboxamide]
18 | 44 | Cn1c(=O)c(C(=O)Nc2cccc(Sc3ncc(N4CCC(C)(CN)CC4)nc3N)c2Cl)c(O)c2ccccc21 [Example 8, N-(3-((3-amino-5-(4-(aminomethyl)-4-methylpiperidin-1-yl)pyrazin-2-yl)thio)-2-chlorophenyl)-4-hydroxy-1-methyl-2-oxo-1,2-dihydroquinoline-3-carboxamide]
19 | 3 | CC1(CN)CCN(c2cnc(Sc3cccc(NC(=O)c4c(O)nc5cnccn5c4=O)c3Cl)c(N)n2)CC1 [Example 5, N-(3-((3-amino-5-(4-(aminomethyl)-4-methylpiperidin-1-yl)pyrazin-2-yl)thio)-2-chlorophenyl)-2-hydroxy-4-oxo-4H-pyrazino[1,2-a]pyrimidine-3-carboxamide]

Source: US10934285B2, “Compounds and compositions for inhibiting the activity of SHP2” (Novartis AG, priority 2016, dated 2021)
